Test results reported in patent EP2444396A1, “PHOTOPROTECTIVE COMPOSITION” (Apoteknos Para La Piel, S.L., priority 2009, dated 2010).
Values joined by “and” are separate entries in the source; they are usually repeats but may differ in a detail not shown here. Equal entries are not always repeated. Marks after values point to notes of the source that are not given here.

Tests used:
[1] = molecular target: T1, ERα (Homo sapiens, UniProt P03372); test: Estrogenicity reporter gene bioassay (luciferase activity) in HELN-ERα cells; format: cell-based
T1 construct: expressed in transfected cells; host or cells: HeLa (HELN-ERα)
T1 sequence (P03372 1-595): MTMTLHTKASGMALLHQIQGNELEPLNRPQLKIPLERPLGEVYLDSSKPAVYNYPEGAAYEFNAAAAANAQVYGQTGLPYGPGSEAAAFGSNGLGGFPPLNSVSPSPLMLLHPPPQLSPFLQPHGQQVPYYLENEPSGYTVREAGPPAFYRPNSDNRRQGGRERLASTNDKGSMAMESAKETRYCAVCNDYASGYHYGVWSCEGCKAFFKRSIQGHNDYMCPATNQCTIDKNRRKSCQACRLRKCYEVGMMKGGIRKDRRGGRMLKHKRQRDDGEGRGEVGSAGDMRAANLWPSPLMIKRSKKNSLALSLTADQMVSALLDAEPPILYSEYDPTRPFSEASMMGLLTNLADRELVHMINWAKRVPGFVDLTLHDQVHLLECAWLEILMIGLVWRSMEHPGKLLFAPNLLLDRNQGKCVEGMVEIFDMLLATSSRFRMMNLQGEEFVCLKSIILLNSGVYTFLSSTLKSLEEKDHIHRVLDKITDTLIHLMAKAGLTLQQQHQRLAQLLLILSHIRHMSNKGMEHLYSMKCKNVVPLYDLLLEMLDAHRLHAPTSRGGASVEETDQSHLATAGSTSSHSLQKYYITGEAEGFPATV
From the text: Briefly, the transactivation bioassay (Reporter gene assay) used are based on the use of breast and uterine cancer cell lines transfected with different native or modified hormone receptors. The resulting cell lines further contain a reporter gene regulated by estrogens through the estrogen response element, the globin promoter and the luciferase gene.
HELN-ERα and HELN-ERβ cell lines were obtained by means of transfecting the HeLa uterine cancer cell line. In a first phase, said cells were transfected with an estrogen sensitive response element and then with the estrogen receptor alpha or beta (ERα or ERβ). The selection of clones resistant to geneticin and puromycin was performed using a concentration of 1 mg/mL and 0.5 mg/mL, respectively. The maintenance medium as well as the experimental medium of these 2 cell lines is DMEM F12 without phenol red supplemented with 6% of FBS (lacking of estrogens), 1% of penicillin / streptomycin, 1 mg/mL of geneticin and 0.5 µg/mL of puromycin.
The cells were seeded at a density of 5x10^4 cells per well in white opaque 96 well plates in 150 µL of experimental medium. After 8 hours, the compounds to be assayed (p-nitrolophine and estradiol) were prepared (concentrated 4x) in the same medium and were added to each well (50 µl). The cells were incubated for 16 hours at 37°C. At the end of the incubation, the medium was removed and replaced with fresh medium containing […] luciferin [at that concentration, luciferin diffuses into cell producing a luminescent signal which is stable after 5 minutes and for at least 2 hours]. The plates were then introduced in the luminometer to measure the luminescence for 2 seconds. A YicroBeta Trilux luminometer (EGG Wallac) apparatus was used to detect luciferase activity.
The assays were preformed in quadruple for each concentration (0.01-10 µM) in at least three independent experiments. […] The values of luciferase activity obtained were analyzed using the one-way ANOVA statistic test. The differences were considered significant when P was less than […] (P < 0.05).

[2] = test system: inflammation induced by phorbol 12-myristate-13-acetate (PMA); test: Topical anti-inflammatory activity: ear inflammation induced by PMA in mice; format: in vivo; parameters: RE / RE Average: unit not given here; conditions: for LE Average: left ear (non treated); for LE Average / RE Average: group average; for RE Average: right ear (treated); for LE: weight of 6 mm portion of left ear (non treated); for LE / RE: individual mice; for RE: weight of 6 mm portion of right ear (treated)
Experimental: The topical anti-inflammatory activity of p-nitrolophine has been analyzed in this study since erythema is a inflammatory process. Specifically, the inhibition of inflammation induced by phorbol 12-myristate-13-acetate (PMA) was evaluated and compared with an anti-inflammatory product of reference (indometacin). 37 mice were divided into the following groups: positive control group (PMA 0.5 mg); negative control group (indometacin 0.5 mg); treated groups (0.5 mg and 1 mg of p-nitrolophine). All the solutions were prepared using acetone (ppa) as vehicle. 20 µL of solution of 25 mg/mL of phorbol 12-myristate-13-acetate (PMA) [Fluka cod 79346] (10 µL in each face) was administered in the right ear of each mouse. Immediately after administering the PMA, nothing more was administered into the positive control group; 20 µL of the solution of 25 mg/mL of indometacin was administered to the negative control group, and 20 µL of the solution of 25 or 50 mg/mL of 4-nitrolophine was administered in the same manner to the treated groups. Animals having no lesions or skin and ear irritation were used.
After 4 hours of post-treatment, the mice were sacrificed through cervical fracture and a portion of 6 mm in diameter was obtained from each ear with a hollow punch which was weight in precision analytical balance. The difference in weight (Δ) between the right ear (treated) and the left ear (non treated) for each animal and for each group were calculated. The percentage of inhibition (% inh) was estimated and calculated according to the following equation: % inh = 100(1-Δt/Δc) [formula] wherein Δt represents the difference in the treated groups and Δc the difference for the […].
In order to analyze the results, an one way ANOVA and Dunnet test for multiple comparison was used, values of P<0.05 were considered significant. A software, Graphpad Instat Version 3.06, was used for such purposes.

O=[N+]([O-])c1ccc(-c2nc(-c3ccccc3)c(-c3ccccc3)[nH]2)cc1 [p-nitrolophine, 2-(4-nitrophenyl)-4,5-diphenyl-1H-imidazole] was tested, and the activity at 0.01 µM [1] was 11.1 ± 0.9%, the activity at 0.03 µM [1] was 11.7 ± 0.9% and the activity at 0.1 µM [1] was 10.7 ± 1.1%. For the same compound, the activity at 0.3 µM [1] was 11.3 ± 1.5%, the activity at 1 µM [1] was 11.1 ± 1.1% and the activity at 3 µM [1] was 11.2 ± 1.4%. The activity at 10 µM [1] was 11.6 ± 1.5%, the estrogenicity ([1]; HELN-ERα line, conclusion in words) was “not estrogenic” and the “% inhibition” value ([2]; 4 hours) was 100** (q = 9.5) %. For the same compound, the “Average (Δ = RE - LE)” value ([2]; Dose (mg/ear) 0.5, 4 hours) was -0.13, the “% inhibition” value ([2]; Dose (mg/ear) 1, n=4, tendency, not statistically compared) was ~90% and the “Average (Δ = RE - LE)” value ([2]; Dose (mg/ear) 1, n=4, 4 hours) was 0.52. For the same compound, the “LE Average” value ([2]; 0.5 mg group, 4 hours) was 6.7, the “LE Average” value ([2]; 1 mg group, 4 hours) was 5.9 and the “RE Average” value ([2]; 0.5 mg, 4 hours) was 6.6. For the same compound, the “RE Average” value ([2]; 1 mg, 4 hours) was 6.4, the LE ([2]; 0.5 mg group, 4 hours, listed as 4-nitrolophine) was 9.9 and 7.5 (2×) and 6.2 (2×) and 6.4 and 6.7 (2×) and 5.6 and 5.2 and 5.9 and 7.8 and 6 and the LE ([2]; 1 mg group, 4 hours, listed as 4-Nitrolophine) was 5.6 and 5.8 and 5,5 and 6.6. For the same compound, the RE ([2]; 0.5 mg, 4 hours, listed as 4-nitrolophine) was 7.3 and 7 and 5.9 (2×) and 5.6 and 6.6 (2×) and 7.2 and 7.8 and 6.5 and 6 and 7.7 and 5.8 and the RE ([2]; 1 mg, 4 hours, listed as 4-Nitrolophine) was 5.9 and 7.3 and 6.2 (2×).
